Data: EP0426225A2, “(6,7-dihydro-5H-pyrrolo[1,2-c]-imidazol-5-yl)- and (5,6,7,8-tetrahydroimidazo[1,5-a]pyridin-5-yl) substituted 1H-benzotriazole derivatives” (JANSSEN PHARMACEUTICA N.V., priority 1989, dated 1991)
Structures can show the parent of a compound that is named as a salt. Where two headings read alike, the source gives them in different places.

Columns and labels:
[1] = target: T1, aromatase (Rattus norvegicus, UniProt P22443); experiment: In vivo inhibition of the aromatase activity (plasma estradiol in PMSG-injected immature female rats); design: species or system Wistar rats; settings: read-out: Aromatase in vivo % inhibition at 1 mg/kg
T1 construct: Immature female Wistar rats weighing 120 g were injected subcutaneously; from tissue; host or cells: whole animal: immature female Wistar rats primed with PMSG (endogenous, mainly ovarian, aromatase by own knowledge)
T1 sequence (P22443 1-508): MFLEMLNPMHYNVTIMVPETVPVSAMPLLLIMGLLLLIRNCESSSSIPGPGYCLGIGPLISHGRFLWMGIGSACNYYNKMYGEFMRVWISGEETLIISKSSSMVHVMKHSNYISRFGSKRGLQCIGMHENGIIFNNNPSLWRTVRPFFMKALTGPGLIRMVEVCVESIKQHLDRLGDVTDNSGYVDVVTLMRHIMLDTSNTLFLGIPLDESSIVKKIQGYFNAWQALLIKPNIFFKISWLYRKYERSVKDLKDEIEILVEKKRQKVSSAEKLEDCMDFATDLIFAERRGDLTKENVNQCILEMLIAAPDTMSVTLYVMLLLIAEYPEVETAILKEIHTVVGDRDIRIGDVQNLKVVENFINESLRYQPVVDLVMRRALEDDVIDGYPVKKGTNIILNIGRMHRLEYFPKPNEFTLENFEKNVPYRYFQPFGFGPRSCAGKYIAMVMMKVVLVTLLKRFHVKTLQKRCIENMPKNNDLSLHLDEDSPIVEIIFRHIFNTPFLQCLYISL
Method: Immature female Wistar rats weighing 120 g were injected subcutaneously with 200 I.U. of pregnant mare's serum gonadotropin (PMSG). Ninety hours later, 1 mg/kg of the test compound dissolved in 0.5 ml 20% polyethyleneglycol in water was administered by oral gavage. Control animals received 20% polyethyleneglycol only. Two hours following drug or placebo administration the rats were killed by decapitation and trunk blood was collected on heparine. Plasma estradiol concentrations were measured by standard radio-immunological procedures. […]

[2] = target: T2, aromatase (Homo sapiens, UniProt P11511); experiment: In vitro inhibition of the aromatase activity test (conversion of 1,2[3H]-androstenedione into estrone and estradiol, human placental microsomes); assay type: biochemical; settings: 30 min at 37°C, concentration required to obtain 50% inhibition of the estrogen synthesis, read-out: Aromatase in vitro IC₅₀
T2 construct: from tissue; host or cells: human placental microsomes
T2 sequence (P11511 1-503): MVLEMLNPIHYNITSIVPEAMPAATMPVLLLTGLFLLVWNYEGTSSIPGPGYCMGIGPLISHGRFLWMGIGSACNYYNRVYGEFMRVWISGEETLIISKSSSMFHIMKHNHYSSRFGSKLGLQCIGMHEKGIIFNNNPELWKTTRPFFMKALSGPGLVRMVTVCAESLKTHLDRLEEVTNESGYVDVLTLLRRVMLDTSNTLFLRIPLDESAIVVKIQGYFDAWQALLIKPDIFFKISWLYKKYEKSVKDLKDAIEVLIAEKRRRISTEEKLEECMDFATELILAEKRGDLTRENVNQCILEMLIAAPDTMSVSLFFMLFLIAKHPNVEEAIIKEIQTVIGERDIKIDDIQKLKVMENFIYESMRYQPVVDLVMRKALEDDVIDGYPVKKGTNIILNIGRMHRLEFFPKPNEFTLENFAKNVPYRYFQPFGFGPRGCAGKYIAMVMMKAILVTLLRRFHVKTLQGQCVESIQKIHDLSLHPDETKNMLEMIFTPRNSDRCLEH
Method: Human placental microsomes were diluted in potassium phosphate buffer (0.1M, pH 7.4) to give about 50% conversion of androgens to estrogens (protein content : about 0.5 mg). Four ml human placental microsomes were incubated in a final volume of 5 ml with 0.2 µCi 1,2[³H]-androstenedione, 2 µg androstenedione and 5 µl of test compound and/or dimethylsulfoxide (DMSO). […] The reaction was initiated by the addition of androstenedione and proceeded for 30 min at 37°C. During the incubation period, the mixtures were gassed with air. In this assay, aromatization of androstenedione results in the production of [3H]-H₂O which is isolated by extracting the samples with chloroform to remove the free steroid.

[3] = 1 mg/kg by oral gavage, immature female Wistar rats 90 h after PMSG, plasma estradiol two hours after administration, relative to controls

Row | Compound | inhibition at 1 mg/kg [1, 3] [%] | IC50 [2] [nM] | inhibition at 1 mg/kg ([1]; po) [%]
1 | c1cc2nnn(C3CCCCC3)c2cc1C1CCCc2cncn21 (stereo not shown) [Compound 35] | 98 | 41 | 
2 | OCCOn1nnc2ccc(C3CCCc4cncn43)cc21 (stereo not shown) [Compound 21] | 88 | < 1000 | 
3 | CCC(C)On1nnc2ccc(C3CCCc4cncn43)cc21 (stereo not shown) [Compound 20] | 87 | 39.3 | 
4 | c1cc2nnn(OCC3CC3)c2cc1C1CCCc2cncn21 (stereo not shown) [Compound 8, 1-(cyclopropylmethoxy)-6-(5,6,7,8-tetrahydroimidazo[1,5-a]pyridin-5-yl)-1H-benzotriazole mononitrate] |  | 31.9 | 87
5 | CCn1nnc2ccc(C3CCCc4cncn43)cc21 (stereo not shown) [Compound 26, 1-ethyl-6-(5,6,7,8-tetrahydroimidazo[1,5-a]pyridin-5-yl)-1H-benzotriazole monohydrochloride] | 93 | 54 | 
6 | CCOn1nnc2ccc(C3CCCc4cncn43)cc21 (stereo not shown) [Compound 4] | 94 | 37.5 | 
7 | Cn1nnc2ccc(C3CCCc4cncn43)cc21 (stereo not shown) [Compound 23] | 93 | 89.8 | 
8 | CC(C)Cn1nnc2ccc(C3CCCc4cncn43)cc21 (stereo not shown) [Compound 33] | 96 | 46 | 
9 | N#Cc1ccc(COn2nnc3ccc(C4CCCc5cncn54)cc32)cc1 (stereo not shown) [Compound 2] | 96 | 44.2 | 
10 | CCCn1nnc2ccc(C3CCCc4cncn43)cc21 (stereo not shown) [Compound 31] | 96 | 43.5 | 
11 | N#CCCCCOn1nnc2ccc(C3CCCc4cncn43)cc21 (stereo not shown) [Compound 18] | 88 | 34.6 | 
12 | C=C(C)COn1nnc2ccc(C3CCCc4cncn43)cc21 (stereo not shown) [Compound 12] | 85 | 25.2 | 
13 | COn1nnc2ccc(C3CCCc4cncn43)cc21 (stereo not shown) [Compound 9] | 89 | 57 | 
14 | CCCOn1nnc2ccc(C3CCCc4cncn43)cc21 (stereo not shown) [Compound 3] | 92 | 29.5 | 
15 | CC(C)(C)n1nnc2ccc(C3CCCc4cncn43)cc21 (stereo not shown) [Compound 32] | 95 | 54 | 
16 | CCCCn1nnc2ccc(C3CCCc4cncn43)cc21 (stereo not shown) [Compound 24] | 89 | 31.7 | 
17 | C#CCOn1nnc2ccc(C3CCCc4cncn43)cc21 (stereo not shown) [Compound 14] | 80 | 29.5 | 
18 | CCCCOn1nnc2ccc(C3CCCc4cncn43)cc21 (stereo not shown) [Compound 10] | 88 | 31.7 | 
19 | c1cc2nnn(C3CCCC3)c2cc1C1CCCc2cncn21 (stereo not shown) [Compound 30] | 93 | 42.3 | 
20 | CC(C)n1nnc2ccc(C3CCCc4cncn43)cc21 (stereo not shown) [Compound 25] | 91 | 55.6 | 
21 | C=CCOn1nnc2ccc(C3CCCc4cncn43)cc21 (stereo not shown) [Compound 5] | 95 | 27.9 | 
22 | CCCCCCn1nnc2ccc(C3CCCc4cncn43)cc21 (stereo not shown) [Compound 27] | 86 | 25.4 | 
23 | CC(C)COn1nnc2ccc(C3CCCc4cncn43)cc21 (stereo not shown) [Compound 6] | 86 | 59.2 | 
